From patent EP1181934A1, “INHIBITORS FOR OPTIC HYPOFUNCTION CAUSED BY OPTIC NERVE CELL INJURY INDUCED BY FACTORS OTHER THAN OPTIC CIRCULATORY DISORDER” (Senju Pharmaceutical Co., Ltd., priority 1999, dated 2000)

Assays:
[1] = tested on: retinal ganglion cells; experiment: central retinal artery and vein ligation model (ischemia/re-perfusion), retinal ganglion cell count; format: in vivo; details: male SD rats; hemostasis 55 minutes; 10 µg/kg via the tail vein twice (15 min before hemostasis and immediately after declamping); day 7 from release from ischemia; vs ischemic re-perfusion group, P<0.027 (Fig. 1, n=6)
Method: Effect of the inventive compound on an ophthalmic nerve cell disorder in rats was tested using a central retinal artery and vein ligation model, which is a model for examining increase in a calcium amount in an optic nerve cell.
Male SD rats (body weight 150 g) were grouped into a normal group, ischemic re-perfusion group and inventive compound administration group. The ischemic re-perfusion group and the inventive compound administration group were anesthetized with pentobarbital 50 mg/kg, and the central retinal artery and vein were ligated with an arterial aneurysm clip for hemostasis for 55 minutes. At 7 days from declamping, eyeballs were removed and fixed with 4% formaldehyde to prepare a tissue sample. After embedding in paraffin according to a conventional method, a thin slice (2 µm thick) was prepared by horizontal section vertical to a surface of the retina including the optic disc, and stained with hematoxylin-eosin. The number of retinal ganglion cells per a 0.25 mm retina vertical section at a certain distance (1-2 mm) from the optic disc was counted under an optical microscope. As regards the normal group, the number of retinal ganglion cells was counted in the same manner only with exposure of the central retinal artery and vein and without hemostasis. […]
Significance was detected by the Student's t-Test.

[2] = tested on: retinal ganglion cells; experiment: cell death induction by increased intracellular calcium amount (kainic acid) in isolated retinal ganglion cells, MTT; format: cell-based; details: retinal ganglion cells of 8-day-old rats, 5 mM calcium chloride, pH 6.0, 1 h pre-incubation with compound, then 200 µM kainic acid, vs cell death induction group, P<0.01 (Fig. 2)
Method: The retina was obtained from ten 8-day-old rats and treated with papain to give a cell suspension. Using a non-coat dish (TERUMO) and a dish (CORNING) coated with Thy-1.1 antibody (American Type Culture Collection, […]), retinal ganglion cells alone were isolated from the whole cells of the retina. The retinal ganglion cells on the dish were trypsinized and recovered. Then the recovered retinal ganglion cells were plated on a 96 well plate coated with poly-D-lysine and laminin at a concentration of 5000 cells/well/100 μl. The isolated retinal ganglion cells were divided for the normal group, cell death induction group and inventive compound administration group. As the cultures of the cell death induction group and inventive compound administration group, calcium chloride was added to Neurobasal medium (GIBCO) at a final concentration of 5 mM to adjust its pH to 6.0 and used. As the additives to the culture, 40 ng/ml BDNF (Pepro Tech), 40 ng/ml CNTF (Sigma), 5 μM Forskolin (Sigma), 1 mM glutamine (Wako), 50x B27 supplement (GIBCO) and Pen-strep (GIBCO) were added. For the inventive compound administration group, the inventive compound was added simultaneously with the plating of the cells and pre-incubated at 37°C for 1 h. After 1 h, kainic acid having a final concentration of 200 μM was added and the mixture was incubated at 37°C to induce cell death. […]

[3] = tested on: ischemic retinal neurocyte disorder; details: calcium antagonists; experiment models such as high ocular pressure rat models and central retinal artery and vein ligation models; cited from earlier work

With `C=CCN1CCN(CC(C)(C)COC(=O)C2=C(C)NC(C)=C(C(=O)OC)C2c2cccc([N+](=O)[O-])c2)CC1.Cl.Cl` (stereo not drawn) [inventive compound, 3-(4-allyl-1-piperazinyl)-2,2-dimethylpropyl methyl 2,6-dimethyl-4-(m-nitrophenyl)-1,4-dihydropyridine-3,5-dicarboxylate dihydrochloride] the “number of residual retinal ganglion cells in 0.25 mm of vertical retinal cross section” value [1] was “significantly inhibited decrease in the retinal ganglion cell count” and the “viability (%) relative to that of a normal group (retinal ganglion cell count)” value [2] was “significantly inhibited decrease in the retinal ganglion cell count”.
In the case of `Fc1ccc(C(c2ccc(F)cc2)N2CCN(C/C=C/c3ccccc3)CC2)cc1` [flunarizine], the “inhibition of ischemic retinal neurocyte disorder” value [3] is listed as “inhibited ischemic retinal neurocyte disorder”.
